Bridge positions count the residues as written; N and C are the ends. Square brackets hold non-standard residues; d marks the D form. Peptide text beside a SMILES is read from it. Pro(4R-NH2) = N[C@H]1CN[C@H](C(=O)O)C1; Gly(N-2-aminoethyl) = NCCNCC(=O)O; Hyp = O=C(O)[C@@H]1C[C@@H](O)CN1; Gly(N(CH2)3NH2) = NCCCNCC(=O)O; Pen = CC(C)(S)[C@H](N)C(=O)O; dDab = NCC[C@@H](N)C(=O)O; Dab = NCC[C@H](N)C(=O)O; Nlys = NCCCCNCC(=O)O
Assays:
[1] = test system: human red blood cells (hRBC); assay: Hemolysis of human red blood cells; format: cell-based; details: red cells of human, 1 h
Procedure, shortened: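 Percent hemolysis is OD540 of peptide-treated supernatant relative to water-lysed cells. Each peptide was tested at 200 μg/mL against 20% (v/v) washed human erythrocytes. Incubation was 1 h at 37 °C, 300 rpm.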

[2] = test system: Klebsiella pneumoniae SSI3010; details: SSI3010
Procedure, shortened: (§1)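 Peptides were made up as 1 mg/mL stocks in sterile water. Colonies in 0.85% saline were set to 0.5 McFarland, then diluted in cation-adjusted Mueller-Hinton II broth to about 5×10^5 CFU/mL. Inoculum was combined with two-fold serial peptide dilutions in water containing 0.002% (final) polysorbate 80.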

[3] = test system: Escherichia coli MCR-1 Af 45; details: MCR-1 Af 45
Procedure, shortened: as §1

[4] = test system: Escherichia coli ATCC 25922; details: ATCC 25922
Procedure, shortened: as §1

Compound	Klebsiella pneumoniae SSI3010 MIC [2]	Escherichia coli MCR-1 Af 45 MIC [3]	Escherichia coli ATCC 25922 MIC [4]	Hemolysis at 0.2 g/L [1]
CC[C@H](C)[C@H](NC(=O)CN(CCN)C(=O)[C@@H](NC(=O)[C@@H]1C[C@@H](O)CN1C(=O)CNCCCCN)C(C)C)C(=O)N[C@H](C(=O)N[C@@H](Cc1ccc(O)cc1)C(=O)N[C@@H]1C(=O)N[C@@H](CC(N)=O)C(=O)N[C@@H](CCCNC(=N)N)C(=O)N[C@@H](CCN)C(=O)N[C@@H]([C@@H](C)O)C(=O)N[C@H](CCN)C(=O)N[C@@H](CCCCN)C(=O)N[C@H](C(=O)N[C@@H](CCN)C(=O)N[C@@H](CCCNC(=N)N)C(=O)N[C@@H](Cc2ccc(O)cc2)C(=O)O)CSSC1(C)C)[C@@H](C)O [Example 49, Nlys-Hyp-Val-Ndab-Ile-Thr-Tyr-Pen-Asn-Arg-Dab-Thr-^DDab-Lys-Cys-Dab-Arg-Tyr] (H-[Nlys][Hyp]V[Gly(N-2-aminoethyl)]ITY[Pen]NR[Dab]T[dDab]KC[Dab]RY-OH; disulfide 8-15; N-terminus and C-terminus assumed)	0.25 µg/mL	0.125 µg/mL	0.125 µg/mL	0%
CC[C@H](C)[C@H](NC(=O)[C@@H]1C[C@@H](O)CN1C(=O)[C@@H](NC(=O)CN(CCN)C(=O)CNCCCN)C(C)C)C(=O)N[C@H](C(=O)N[C@@H](Cc1ccc(O)cc1)C(=O)N[C@@H]1C(=O)N[C@@H](CC(N)=O)C(=O)N[C@@H](CCCNC(=N)N)C(=O)N[C@@H](CCN)C(=O)N[C@@H]([C@@H](C)O)C(=O)N[C@H](CCN)C(=O)N[C@@H](CCCCN)C(=O)N[C@H](C(=O)N[C@@H](CCN)C(=O)N[C@@H](CCCNC(=N)N)C(=O)N[C@@H](Cc2ccc(O)cc2)C(=O)O)CSSC1(C)C)[C@@H](C)O [Example 55, Norn-Ndab-Val-Hyp-Ile-Thr-Tyr-Pen-Asn-Arg-Dab-Thr-^DDab-Lys-Cys-Dab-Arg-Tyr] (H-[Gly(N(CH2)3NH2)][Gly(N-2-aminoethyl)]V[Hyp]ITY[Pen]NR[Dab]T[dDab]KC[Dab]RY-OH; disulfide 8-15)	0.125 µg/mL	≤0.03125 µg/mL	≤0.03125 µg/mL	0%
CC[C@H](C)[C@H](NC(=O)[C@@H]1C[C@@H](O)CN1C(=O)[C@@H](NC(=O)CN(CCN)C(=O)CNCCCCN)C(C)C)C(=O)N[C@H](C(=O)N[C@@H](Cc1ccc(O)cc1)C(=O)N[C@@H]1C(=O)N[C@@H](CC(N)=O)C(=O)N[C@@H](CCCNC(=N)N)C(=O)N[C@@H](CCN)C(=O)N[C@@H]([C@@H](C)O)C(=O)N[C@H](CCN)C(=O)N[C@@H](CCCCN)C(=O)N[C@H](C(=O)N[C@@H](CCN)C(=O)N[C@@H](CCCNC(=N)N)C(=O)N[C@@H](Cc2ccc(O)cc2)C(=O)O)CSSC1(C)C)[C@@H](C)O [Example 56, Nlys-Ndab-Val-Hyp-Ile-Thr-Tyr-Pen-Asn-Arg-Dab-Thr-^DDab-Lys-Cys-Dab-Arg-Tyr] (H-[Nlys][Gly(N-2-aminoethyl)]V[Hyp]ITY[Pen]NR[Dab]T[dDab]KC[Dab]RY-OH; disulfide 8-15)	0.125 µg/mL	0.0625 µg/mL	0.0625 µg/mL	0%
CC[C@H](C)[C@H](NC(=O)[C@@H]1C[C@@H](N)CN1C(=O)[C@@H](NC(=O)[C@@H]1C[C@@H](O)CN1C(=O)[C@@H](N)CCCCN)C(C)C)C(=O)N[C@H](C(=O)N[C@@H](Cc1ccc(O)cc1)C(=O)N[C@@H]1C(=O)N[C@@H](CC(N)=O)C(=O)N[C@@H](CCCNC(=N)N)C(=O)N[C@@H](CCN)C(=O)N[C@@H]([C@@H](C)O)C(=O)N[C@H](CCN)C(=O)N[C@@H](CCCCN)C(=O)N[C@H](C(=O)N[C@@H](Cc2ccc(O)cc2)C(=O)N[C@@H](CCCNC(=N)N)C(=O)N[C@@H](Cc2ccc(O)cc2)C(=O)O)CSSC1(C)C)[C@@H](C)O [Example 57, Lys-Hyp-Val-Pro((4R)NH2)-Ile-Thr-Tyr-Pen-Asn-Arg-Dab-Thr-^DDab-Lys-Cys-Tyr-Arg-Tyr] (HELM PEPTIDE1{K.[Hyp].V.[N[C@@H]1C[C@@H](C(=O)[*:2])N([*:1])C1].I.T.Y.[Pen].N.R.[Dab].T.[NCC[C@@H](N[*:1])C(=O)[*:2]].K.C.Y.R.Y}$PEPTIDE1,PEPTIDE1,8:R3-15:R3$$$V2.0)	0.25 µg/mL	0.125 µg/mL	0.25 µg/mL	0%

Continued, in another order:

Klebsiella pneumoniae SSI3010 MIC [2]	Escherichia coli MCR-1 Af 45 MIC [3]	Escherichia coli ATCC 25922 MIC [4]	Compound	Hemolysis at 0.2 g/L [1]
0.125 µg/mL	0.0625 µg/mL	0.125 µg/mL	CC[C@H](C)[C@H](NC(=O)[C@@H]1C[C@@H](O)CN1C(=O)[C@@H](NC(=O)[C@@H]1C[C@@H](N)CN1C(=O)[C@@H](N)CCCCN)C(C)C)C(=O)N[C@H](C(=O)N[C@@H](Cc1ccc(O)cc1)C(=O)N[C@@H]1C(=O)N[C@@H](CC(N)=O)C(=O)N[C@@H](CCCNC(=N)N)C(=O)N[C@@H](CCN)C(=O)N[C@@H]([C@@H](C)O)C(=O)N[C@H](CCN)C(=O)N[C@@H](CCCCN)C(=O)N[C@H](C(=O)N[C@@H](CCN)C(=O)N[C@@H](CCCNC(=N)N)C(=O)N[C@@H](Cc2ccc(O)cc2)C(=O)O)CSSC1(C)C)[C@@H](C)O [Example 50, Lys-Pro((4R)NH2)-Val-Hyp-Ile-Thr-Tyr-Pen-Asn-Arg-Dab-Thr-^DDab-Lys-Cys-Dab-Arg-Tyr] (HELM PEPTIDE1{K.[N[C@@H]1C[C@@H](C(=O)[*:2])N([*:1])C1].V.[Hyp].I.T.Y.[Pen].N.R.[Dab].T.[NCC[C@@H](N[*:1])C(=O)[*:2]].K.C.[Dab].R.Y}$PEPTIDE1,PEPTIDE1,8:R3-15:R3$$$V2.0)	0%
0.0625 µg/mL	≤0.03125 µg/mL	0.0625 µg/mL	CC[C@H](C)[C@H](NC(=O)[C@@H]1C[C@@H](O)CN1C(=O)[C@@H](NC(=O)CN(CCN)C(=O)[C@@H](N)CCCCN)C(C)C)C(=O)N[C@H](C(=O)N[C@@H](Cc1ccc(O)cc1)C(=O)N[C@@H]1C(=O)N[C@@H](CC(N)=O)C(=O)N[C@@H](CCCNC(=N)N)C(=O)N[C@@H](CCN)C(=O)N[C@@H]([C@@H](C)O)C(=O)N[C@H](CCN)C(=O)N[C@@H](CCCCN)C(=O)N[C@H](C(=O)N[C@@H](CCN)C(=O)N[C@@H](CCCNC(=N)N)C(=O)N[C@@H](Cc2ccc(O)cc2)C(=O)O)CSSC1(C)C)[C@@H](C)O [Example 53, Lys-Ndab-Val-Hyp-Ile-Thr-Tyr-Pen-Asn-Arg-Dab-Thr-^DDab-Lys-Cys-Dab-Arg-Tyr] (HELM PEPTIDE1{K.[NCCN(CC(=O)[*:2])[*:1]].V.[Hyp].I.T.Y.[Pen].N.R.[Dab].T.[NCC[C@@H](N[*:1])C(=O)[*:2]].K.C.[Dab].R.Y}$PEPTIDE1,PEPTIDE1,8:R3-15:R3$$$V2.0)	0%
0.25 µg/mL	0.125 µg/mL	0.125 µg/mL	CC[C@H](C)[C@H](NC(=O)[C@@H]1C[C@@H](O)CN1C(=O)[C@@H](NC(=O)CN(CCN)C(=O)CNCCN)C(C)C)C(=O)N[C@H](C(=O)N[C@@H](Cc1ccc(O)cc1)C(=O)N[C@@H]1C(=O)N[C@@H](CC(N)=O)C(=O)N[C@@H](CCCNC(=N)N)C(=O)N[C@@H](CCN)C(=O)N[C@@H]([C@@H](C)O)C(=O)N[C@H](CCN)C(=O)N[C@@H](CCCCN)C(=O)N[C@H](C(=O)N[C@@H](CCN)C(=O)N[C@@H](CCCNC(=N)N)C(=O)N[C@@H](Cc2ccc(O)cc2)C(=O)O)CSSC1(C)C)[C@@H](C)O [Example 54, Ndab-Ndab-Val-Hyp-Ile-Thr-Tyr-Pen-Asn-Arg-Dab-Thr-^DDab-Lys-Cys-Dab-Arg-Tyr] (H-[Gly(N-2-aminoethyl)][Gly(N-2-aminoethyl)]V[Hyp]ITY[Pen]NR[Dab]T[dDab]KC[Dab]RY-OH; disulfide 8-15)	0%
0.25 µg/mL	0.125 µg/mL	0.25 µg/mL	CC[C@H](C)[C@H](NC(=O)[C@@H]1C[C@@H](N)CN1C(=O)[C@@H](NC(=O)[C@@H]1C[C@@H](O)CN1C(=O)CNCCCN)C(C)C)C(=O)N[C@H](C(=O)N[C@@H](Cc1ccc(O)cc1)C(=O)N[C@@H]1C(=O)N[C@@H](CC(N)=O)C(=O)N[C@@H](CCCNC(=N)N)C(=O)N[C@@H](CCN)C(=O)N[C@@H]([C@@H](C)O)C(=O)N[C@H](CCN)C(=O)N[C@@H](CCCCN)C(=O)N[C@H](C(=O)N[C@@H](Cc2ccc(O)cc2)C(=O)N[C@@H](CCCNC(=N)N)C(=O)N[C@@H](Cc2ccc(O)cc2)C(=O)O)CSSC1(C)C)[C@@H](C)O [Example 58, Norn-Hyp-Val-Pro((4R)NH2)-Ile-Thr-Tyr-Pen-Asn-Arg-Dab-Thr-^DDab-Lys-Cys-Tyr-Arg-Tyr] (H-[Gly(N(CH2)3NH2)][Hyp]V[Pro(4R-NH2)]ITY[Pen]NR[Dab]T[dDab]KCYRY-OH; disulfide 8-15)	0%
0.25 µg/mL	0.125 µg/mL	0.25 µg/mL	CC[C@H](C)[C@H](NC(=O)[C@@H]1C[C@@H](O)CN1C(=O)[C@@H](NC(=O)[C@@H]1C[C@@H](N)CN1C(=O)CNCCCCN)C(C)C)C(=O)N[C@H](C(=O)N[C@@H](Cc1ccc(O)cc1)C(=O)N[C@@H]1C(=O)N[C@@H](CC(N)=O)C(=O)N[C@@H](CCCNC(=N)N)C(=O)N[C@@H](CCN)C(=O)N[C@@H]([C@@H](C)O)C(=O)N[C@H](CCN)C(=O)N[C@@H](CCCCN)C(=O)N[C@H](C(=O)N[C@@H](Cc2ccc(O)cc2)C(=O)N[C@@H](CCCNC(=N)N)C(=O)N[C@@H](Cc2ccc(O)cc2)C(=O)O)CSSC1(C)C)[C@@H](C)O [Example 59, Nlys-Pro((4R)NH2)-Val-Hyp-Ile-Thr-Tyr-Pen-Asn-Arg-Dab-Thr-^DDab-Lys-Cys-Tyr-Arg-Tyr] (H-[Nlys][Pro(4R-NH2)]V[Hyp]ITY[Pen]NR[Dab]T[dDab]KCYRY-OH; disulfide 8-15; N-terminus and C-terminus assumed)	0%

— US20230295234A1, “ANTIMICROBIAL PEPTIDOMIMETICS” (SPEXIS AG, priority 2020, published 2023)
